One block for each compound: values may come before it.
Legend:
P2X3 = target: T1, P2X3 (Mus musculus, UniProt Q3UR32); test: ATP-induced [Ca++]i transients in DRG neurons, Fura-2 fluorescence imaging, dish-in-dish culture; type: cell-based
T1 construct: endogenous in cells; host or cells: primary lumbosacral DRG neurons of C57BL/6J mice
T1 sequence (Q3UR32 1-397): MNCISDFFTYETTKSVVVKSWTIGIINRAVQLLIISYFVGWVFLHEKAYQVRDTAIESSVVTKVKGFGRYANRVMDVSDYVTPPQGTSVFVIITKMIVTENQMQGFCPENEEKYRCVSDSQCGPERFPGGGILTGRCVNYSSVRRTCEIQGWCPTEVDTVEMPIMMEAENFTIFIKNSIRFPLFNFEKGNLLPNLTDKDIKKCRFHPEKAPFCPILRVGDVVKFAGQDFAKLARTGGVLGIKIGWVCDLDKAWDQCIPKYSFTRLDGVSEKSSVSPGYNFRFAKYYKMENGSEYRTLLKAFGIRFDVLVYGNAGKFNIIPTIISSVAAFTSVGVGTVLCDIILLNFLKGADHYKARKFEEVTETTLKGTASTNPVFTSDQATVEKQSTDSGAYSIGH
Description: (§1) DRG tissues were obtained from C57BL/6J (Jackson Laboratory; 20 g). Upon arrival, mice were housed in microisolator caging and maintained on 12 hour light/dark cycle in a temperature controlled environment. The mice had access to food and water ad libitum for two weeks. All studies were carried out in accordance with the guidelines of the Institutional Animal Care and Use Committee (IACUC) of Charles R. Drew University of Medicine and Science and the NIH Guide for the Care and Use of Laboratory Animals.
(§2) Lumbosacral adult DRG cells (level L1-S-1) were collected under sterile technique and placed in ice cold medium Dulbecco's Modified Eagle's Medium (DMEM; Sigma-Aldrich, St. Louis, Mo.). Adhering fat and connective tissue were removed and each isolated DRG tissue was minced with sterile scissors and placed immediately in a medium consisting of 5 ml of DMDM containing 0.5 mg/ml of trypsin (Sigma Type III), 1 mg/ml of collagenase (Sigma Type IA) and 0.1 mg/ml of DNAase (Sigma Type III) and all kept at 37 degrees Centigrade for 30 minutes with agitation.
(§3) After dissociation of the ganglia soybean trypsin inhibitor (Sigma Type III) was used to terminate cell dissociation. Cell suspensions were centrifuged for one minute at 1000 rpm and the cell pellets were resuspended in DMEM supplemented with 5% fetal bovine serum (FBS), 2 mM glutamine-penicillin-streptomycin mixture, 1 ug/ml DNAase, and 5 ng/ml of NGF (Sigma).
(§4) Cells were then placed on Matrigel® (Invitrogen, Carlsbad, Calif.) coated 15-mm coverslips (Collaborative Research Co., Bedford Pa.) and kept at 37 degrees Centigrade in a 5% CO2 incubator for 24 hours, then given fresh media and maintained in primary culture until used for experimental procedures.
(§5) Adjacent culture of SH-SY5Y cells with dorsal root ganglion cells occurred as follows. A dish-in-dish system involving a physically separate outer “surround” cell culture well and a separate inner “center” cell culture well was constructed, both wells capable of being managed independently (FIG. 1).
(§6) Mouse DRG neuron cells were seeded in the center well which medium consisted of 5% FBS, 2 mM glutamine-penicillin-streptomycin mixture, 1 ug/mL DNAase, and 5 ng/mL NGF for 24 hours at 5% CO2 and 37 degrees Centigrade. Thus, the two cell populations were co-dish-in-dish cultured, separated but adjacent to each other for 12 hours prior to assessing [Ca++]i response to chemical stimulation. […]
Culture of normal control DRG cells juxtaposed with media containing no cells took place as follows. To establish additional control conditions for assessing the effect of non-diffusible cell-to-cell communication two additional controls were performed: 1) dish-in-dish culture of normal control DRG cells in the center culture well with DRG cell media only in the surround culture well; and 2) dish-in-dish culture of normal control DRG cells in the center culture well with human SH-SY5Y neuroblastoma cell media only in the surround culture well.
(§7) [Ca++]i fluorescence imaging was carried out. DRG neurons were loaded with fluorescent dye […] Fura-2 AM (Invitrogen, Carlsbad, Calif.) for 45 minutes at 37 degrees Centigrade in HBSS supplemented with 20 mM HEPES, pH 7.4. The cover slips were mounted in an RC-26 recording chamber P-4 (Warner Instruments, Hamden, Conn.) and placed on a stage of an Olympus IX51 inverted microscope (Olympus America, Center Valley, Pa.). Observations were made at room temperature (20-23 degrees Centigrade) with a 20× UApo/340 objective. Neurons were bathed and perfused with HBSS buffer using gravity at a rate of 1-2 ml/min.
(§8) Fluorescence intensity at 505 nm with excitation at 334 nm and 380 nm were captured as digital images (sampling rates from 0.1 to 2 seconds). Regions of interest were identified within the soma from which quantitative measurements were made by re-analysis of stored image sequences using Slidebook® Digital Microscopy software. […]

DRG neurons = test: basal [Ca++]i in DRG neurons, Fura-2 fluorescence imaging; type: cell-based, mouse; conditions: E2 100 nM by itself
Description: as §1
Lumbosacral adult DRG cells (level L1-S-1) were collected under sterile technique and placed in ice cold medium Dulbecco's Modified Eagle's Medium (DMEM; Sigma-Aldrich, St. Louis, Mo.). […]
[Ca++]i fluorescence imaging was carried out. […]
as §8, with “software. [Ca++]i was determined by ratiometric method of Fura-2 fluorescence from calibration of a series of buffered Ca++ standards.” for “software.”
All of the data were expressed as the mean±SEM. […]

TRPV1 = target: T2, TRPV1 (Mus musculus, UniProt Q704Y3); test: capsaicin-induced [Ca++]i transients in DRG neurons, Fura-2 fluorescence imaging, dish-in-dish culture; type: cell-based
T2 construct: endogenous in cells; host or cells: primary lumbosacral DRG neurons of C57BL/6J mice
T2 sequence (Q704Y3 whole entry): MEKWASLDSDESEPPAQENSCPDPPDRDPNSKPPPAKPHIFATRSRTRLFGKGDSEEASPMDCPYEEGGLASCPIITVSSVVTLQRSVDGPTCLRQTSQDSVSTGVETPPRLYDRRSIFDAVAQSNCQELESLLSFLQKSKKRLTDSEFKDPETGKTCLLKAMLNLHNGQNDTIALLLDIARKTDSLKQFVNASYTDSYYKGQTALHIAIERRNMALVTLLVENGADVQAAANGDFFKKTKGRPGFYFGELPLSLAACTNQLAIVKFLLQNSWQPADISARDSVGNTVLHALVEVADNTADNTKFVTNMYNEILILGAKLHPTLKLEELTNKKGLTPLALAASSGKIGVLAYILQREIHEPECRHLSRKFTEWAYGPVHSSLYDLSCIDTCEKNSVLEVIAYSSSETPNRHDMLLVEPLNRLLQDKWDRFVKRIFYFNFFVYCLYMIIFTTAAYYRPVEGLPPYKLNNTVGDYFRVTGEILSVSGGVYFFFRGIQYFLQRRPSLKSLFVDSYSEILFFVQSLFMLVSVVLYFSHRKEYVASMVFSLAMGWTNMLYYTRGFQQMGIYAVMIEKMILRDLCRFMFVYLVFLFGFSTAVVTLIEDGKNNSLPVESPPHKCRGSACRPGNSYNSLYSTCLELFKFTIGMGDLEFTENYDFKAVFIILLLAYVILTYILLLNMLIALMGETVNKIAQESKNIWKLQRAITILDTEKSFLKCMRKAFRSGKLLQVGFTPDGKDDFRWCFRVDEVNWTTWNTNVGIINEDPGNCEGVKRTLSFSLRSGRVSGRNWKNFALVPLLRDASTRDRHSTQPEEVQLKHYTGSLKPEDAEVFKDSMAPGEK
Description: as §1, §2, §3, §4, §5, §6, §7
Fluorescence intensity at 505 nm with excitation at 334 nm and 380 nm were captured as digital images (sampling rates from 0.1 to 2 seconds). Regions of interest were identified within the soma from which quantitative measurements were made by re-analysis of stored image sequences using Slidebook® Digital Microscopy software. [Ca++]i was determined by ratiometric method of Fura-2 fluorescence from calibration of a series of buffered Ca++ standards. E2 was applied acutely for five minutes onto the experimental chamber.
Repeated application of drugs was achieved by superfusion into individual neurons in a rapid mixing chamber for specific intervals (100-500 ms). […]

[1] = neuroblastoma SH-SY5Y cells in the surround well

[Ca++]i spikes on ATP application (P2X3; 10 second application of ATP 10 uM, DRG neurons in center and surround wells): equal [Ca++]i spikes
ATP-induced [Ca++]i responses, initial stimulation (P2X3; ATP 10 uM, DRG neurons exposed to KCL (50 mM) in the surround well, p<0.001): four fold higher
ATP-induced [Ca++]i response with media only in surround well (P2X3; ATP 10 uM, SH-SY5Y media without cells in the surround well): as occurred under control conditions
ATP-induced [Ca++]i response (P2X3; ATP 10 uM, neuroblastoma SH-SY5Y cells in the surround well, n=4): 193 ± 40.6 nM
ATP-induced [Ca++]i responses, subsequent stimulation (P2X3; ATP 10 uM, ten minute intervals, DRG neurons exposed to KCL (50 mM) in the surround well, p<0.001): significantly reduced
ATP-induced [Ca++]i transient (P2X3; initial ATP (10 uM) response before E2, DRG cells in surround well (control), mean±SEM, n=5): 425.86 ± 49.5 nM
ATP-stimulated [Ca++]i with KCL media only in surround well (P2X3; media with 50 mM KCL without cells in the surround well): as was observed in the control
Structure (SMILES): Nc1ncnc2c1ncn2[C@@H]1O[C@H](COP(=O)(O)OP(=O)(O)OP(=O)(O)O)[C@@H](O)[C@H]1O [ATP]

ATP-induced [Ca++]i transient after E2 (P2X3; ATP 10 uM after five-minute incubation with E2 (100 nM), mean±SEM, n=5, p<0.05): 171.17 ± 48.9 nM
reversibility of the effect on ATP-induced [Ca++]i (P2X3; E2 100 nM): reversible
effect on ATP-induced [Ca++]i transients (P2X3; E2 100 nM, control conditions): attenuated
effect of E2 on ATP-induced P2X3-mediated [Ca++]i (P2X3; [1]): abolished
peak of capsaicin-induced [Ca++]i transients with E2 (TRPV1; capsaicin 100 nM, E2 100 nM applied first, mean±SEM, n=5, p<0.05): 175.01 ± 34.8 nM
effect on capsaicin-induced TRPV1-mediated [Ca++]i flux (TRPV1; [1]): attenuated
Structure (SMILES): C[C@]12CC[C@@H]3c4ccc(O)cc4CC[C@H]3[C@@H]1CC[C@@H]2O [E2, 17 β-estradiol]
effect on basal [Ca++]i (DRG neurons): no effect

effect on capsaicin-induced [Ca++]i spikes (TRPV1; capsazepine 100 nM, capsaicin 100 nM 3 second): almost completely blocked
Structure (SMILES): Oc1cc2c(cc1O)CN(C(=S)NCCc1ccc(Cl)cc1)CCC2 [capsazepine]

effect on ATP-induced [Ca++]i transients (P2X3; pretreatment with PPADS 5 uM, ATP 10 uM): blocked
Structure (SMILES): Cc1nc(N=Nc2ccc(S(=O)(=O)O)cc2S(=O)(=O)O)c(COP(=O)(O)O)c(C=O)c1O [PPADS]

effect on the 17 β-estradiol inhibitory effect on ATP-induced [Ca++]i transients (P2X3; ICI 182,780 1 nM): blocked
Structure (SMILES): C[C@]12CC[C@@H]3c4ccc(O)cc4C[C@@H](CCCCCCCCC[S+]([O-])CCCC(F)(F)C(F)(F)F)[C@H]3[C@@H]1CC[C@@H]2O (some centres unmarked) [ICI 182,780]

reversibility of the effect of capsaicin (TRPV1): not reversible
peak of capsaicin-induced [Ca++]i transients (TRPV1; capsaicin 100 nM without E2, control conditions, mean±SEM, n=5): 399.21 ± 44.5 nM
capsaicin-induced [Ca++]i response with media only in surround well (TRPV1; capsaicin 100 nM, SH-SY5Y media without cells in the surround well): as occurred under control conditions
capsaicin-induced [Ca++]i response (TRPV1; capsaicin 100 nM, neuroblastoma SH-SY5Y cells in the surround well, n=4): 145.90 ± 28.84 nM
[Ca++]i spikes on capsaicin application (TRPV1; capsaicin 3 second 100 nM by fast superfusion): produced [Ca++]i spikes
Structure (SMILES): COc1cc(CNC(=O)CCCC/C=C/C(C)C)ccc1O [capsaicin]

effect on ATP-induced [Ca++]i spikes (P2X3; BAPTA 10 mM, Ca++-free media): eliminated
Structure (SMILES): O=C(O)CN(CC(=O)O)c1ccccc1OCCOc1ccccc1N(CC(=O)O)CC(=O)O [BAPTA]
